Results: PMC7408072 (Pharmaceutics, 2020)

Experiments:
[1] = cited from earlier work
Experimental: Peptide-based drugs are prone to chemical degradation when presented to enzymes during systemic circulation. Therefore, the stability of the peptide constructs was examined in serum-supplemented media and during incubation in a state-of-the-art in vitro BBB model made up of primary BCECs co-cultured with primary rat astrocytes. Despite their common peptide nature, the stability varied markedly. […] The half-life of ^125I-labelled Tat ([…]) in mouse serum h ...

[2] = cited from earlier work; remark: listed apart in the source
Description: We detected 0.4% ± 0.1% of injected dose/g of TAMRA-Tat in mouse brain homogenate, which is in line with a previous study reporting 0.1% of injected dose/g of ^111In-DOTA-labelled Tat ([…]) following 1-h circulation in mice. Moreover, less TAMRA-Tat-NR2B9c and TAMRA-Tat-N-dimer appeared to accumulate in the brain compared to TAMRA-Tat. This observation is in agreement with the observed BBB permeation by the Tat-conjugated peptides in live mice, supporting our earlier notion that cargo conjugation to Tat impacts its resulting brain delivery.

[3] = system: bovine BCECs co-cultured with rat astrocytes; experiment: Peptide uptake into endothelial cells and astrocytes by confocal microscopy after fixation (bovine BBB model); assay type: cell-based; conditions: 10 µM or 100 µM TAMRA, 3 h, fixed cells, confocal microscopy (Figure S4)
Experimental: […] TEER was measured at room temperature using an Endohm 12 cup (World Precision Instruments, Sarasota, FL, USA) connected to a Millicell-ERS device (Millipore, Bedford, MA, USA). TEER was measured before application of the peptides and after each experiment. The bovine model had initial TEER values ranging from 771 to 1332 Ω·cm^2, whereas the mouse model had initial TEER values ranging from 136 to 217 Ω·cm^2.
To visualize the TAMRA-peptide taken up by the endothelial cells and astrocytes, the remaining filters (one per batch) from the permeation study using the in vitro bovine BBB model were prepared for confocal microscopy. After removal of the peptide solutions, the cells were fixed with 3% paraformaldehyde in PBS for 15 min at room temperature with horizontal shaking (90 rpm). The cells were washed thrice with PBS prior to permeabilization in 0.1% Triton X-100 in PBS for 5 min and blocking in 2% BSA in PBS for 30 min at room temperature with horizontal shaking (90 rpm). The filter inserts were cut out, divided into smaller pieces, and transferred to a 48-well plate to stain zonula ocludens-1 (ZO-1) in the BCECs and F-actin in the astrocytes. Filter pieces with BCECs facing upwards were incubated with a primary antibody directed against ZO-1 (1:100 in PBS with 2% BSA; Thermo Fischer Scientific, Bedford, MA, USA, no. 617300) for 2 h at room temperature. Subsequently, the filters were washed thrice for 5 min in PBS with 2% BSA prior to 30 min incubation with an Alexa-488-conjugated secondary antibody (1:100 in PBS with 2% BSA; Thermo Fischer Scientific, Bedford, MA, USA, no. A11008). Filter pieces with astrocytes facing upwards were incubated with Alexa-488-conjugated phalloidin (1:133 in PBS with 2% BSA; Thermo Fischer Scientific, Bedford, MA, USA) for 30 min at room temperature and washed thrice for 5 min in PBS with 2% BSA. The filter pieces were mounted on glass slides under coverslips using Immu-Mount™ mounting media and imaged using single wavelength excitation a Zeiss 510 laser-scanning confocal microscope (Carl Zeiss, Jena, Germany).

[4] = luminal incubation on bovine brain endothelial cells co-cultured with rat astrocytes in FBS-free differentiation medium; conditions: 37 °C, up to 4 h
[5] = differentiation medium (cell media supplemented with 10% fetal bovine serum (FBS)); conditions: 37 °C, up to 4 h

GRKKRRQRRRPPQ [^111In-DOTA-labelled Tat]
half-life in human serum [1]: 8.8 h
brain level following 1-h circulation in mice [2]: 0.1 % of injected dose/g

TAMRA [reference compound]
uptake of TAMRA as a single entity into the endothelial cells or the astrocytes [3]: not internalized

TAMRA-KLSSIESDV
not cleaved [4]: 95.7% ± 1.6% remaining after 4 h
not cleaved [5]: 92.0% ± 12.6% of the initial concentration remaining after 4 h

YGRKKRRQRRR [^125I-labelled Tat]
half-life in mouse serum [1]: 2.7 min
